Earlier results in US6159733A, “Method for photoinactivating malignant cells” (priority 1996, dated 2000).
Where two headings read alike, the source gives them in different places.

Tests used:
pluripotent stem cells = settings: Sieber, Photochem Photobiol. 46:71 (1987); cited from earlier work
CFU-GM = settings: cited from earlier work
BFU-E = settings: cited from earlier work
malignant cells = settings: cited from earlier work
cancer cell = settings: conditions of the CFU-GM/BFU-E survival data; cited from earlier work
[1] = system: cell lines in BM mixtures; settings: cited from earlier work
[2] = system: multidrug resistance (mdr) pump; settings: cited from earlier work
cell types = settings: cited from earlier work
[3] = Atzpodien, Cancer Res. 46:4892 (1986)

CCCCN1C(=O)C(=CC=CC=C2Oc3ccccc3N2CCCS(=O)(=O)O)C(=O)N(CCCC)C1=S [MC 540, merocyanine-540]
depletion of murine pluripotent stem cells (pluripotent stem cells): 1 log10 | surviving fraction of CFU-GM (CFU-GM; [3]): 0.18 | surviving fraction of CFU-GM (CFU-GM; Gulliya, Blood 73:1059 (1989)): 0.17 | surviving fraction of BFU-E (BFU-E; [3]): 0.14 | surviving fraction of BFU-E (BFU-E; Gulliya, Blood 73:1059 (1989)): 0.04 | photoinactivation of malignant cells (malignant cells): successfully achieved | reduction of cancer cell survival (cancer cell): 4-5 log10 | photoinactivation of cell lines mixed with BM ([1]; BM fraction=0.95-0.99): more effectively inactivated in mixtures

COc1ccc(CCN(C)CCCC(C#N)(c2ccc(OC)c(OC)c2)C(C)C)cc1OC (stereo not drawn) [verapamil]
inhibition of the multidrug resistance (mdr) pump [2]: known inhibitor

Photofrin
relation of uptake and photosensitivity (cell types; Williams, Photochem. Photobiol. 46:733 (1987)): increased uptake resulted in increased photosensitivity for each cell type | differences in photoinactivation between cell types (cell types; despite significant differences in photosensitizer uptake): marginal differences in photoinactivation

benzoporphyrinderivative monoacid ring A [BPD-MA]
surviving fraction of CFU-GM (CFU-GM; cfu-gm): 0.04 | surviving fraction of BFU-E (BFU-E; bfu-e): 0.05 | reduction of cancer cell survival (cancer cell): 4-5 log10

dihematoporphyrin ether [DHE]
surviving fraction of CFU-GM (CFU-GM; Atzpodien, Blood 70:484 (1987)): 0.29 | surviving fraction of CFU-GM (CFU-GM; Lemoli, Blood 81:793 (1993)): 0.05 | surviving fraction of BFU-E (BFU-E; Atzpodien, Blood 70:484 (1987)): 0.47 | surviving fraction of BFU-E (BFU-E; Lemoli, Blood 81:793 (1993)): 0.10 | photoinactivation of malignant cells (malignant cells): successfully achieved | reduction of cancer cell survival (cancer cell): 4-5 log10

sulphonate aluminum phthalocyanine [AlSPc]
surviving fraction of CFU-GM (CFU-GM; cfu-gm): 0.60 | photoinactivation of malignant cells (malignant cells): successfully achieved | reduction of cancer cell survival (cancer cell): 4-5 log10 | photoinactivation of cell lines mixed with BM ([1]; BM fraction=0.99): photoinactivated as effectively as unmixed cell lines
